The compounds below were run against T1, TRPC5 (Homo sapiens, UniProt Q9UL62) (assay: TRPC5 activity assay (FLIPR calcium fluorescence, HEK-TREx hTRPC5 cells)). Conditions: HEK-TREx hTRPC5 cells, FLIPR, 30 μM Riluzole stimulation; read-out: TRPC5.
T1 construct: expressed in transfected cells
T1 sequence (Q9UL62 1-973): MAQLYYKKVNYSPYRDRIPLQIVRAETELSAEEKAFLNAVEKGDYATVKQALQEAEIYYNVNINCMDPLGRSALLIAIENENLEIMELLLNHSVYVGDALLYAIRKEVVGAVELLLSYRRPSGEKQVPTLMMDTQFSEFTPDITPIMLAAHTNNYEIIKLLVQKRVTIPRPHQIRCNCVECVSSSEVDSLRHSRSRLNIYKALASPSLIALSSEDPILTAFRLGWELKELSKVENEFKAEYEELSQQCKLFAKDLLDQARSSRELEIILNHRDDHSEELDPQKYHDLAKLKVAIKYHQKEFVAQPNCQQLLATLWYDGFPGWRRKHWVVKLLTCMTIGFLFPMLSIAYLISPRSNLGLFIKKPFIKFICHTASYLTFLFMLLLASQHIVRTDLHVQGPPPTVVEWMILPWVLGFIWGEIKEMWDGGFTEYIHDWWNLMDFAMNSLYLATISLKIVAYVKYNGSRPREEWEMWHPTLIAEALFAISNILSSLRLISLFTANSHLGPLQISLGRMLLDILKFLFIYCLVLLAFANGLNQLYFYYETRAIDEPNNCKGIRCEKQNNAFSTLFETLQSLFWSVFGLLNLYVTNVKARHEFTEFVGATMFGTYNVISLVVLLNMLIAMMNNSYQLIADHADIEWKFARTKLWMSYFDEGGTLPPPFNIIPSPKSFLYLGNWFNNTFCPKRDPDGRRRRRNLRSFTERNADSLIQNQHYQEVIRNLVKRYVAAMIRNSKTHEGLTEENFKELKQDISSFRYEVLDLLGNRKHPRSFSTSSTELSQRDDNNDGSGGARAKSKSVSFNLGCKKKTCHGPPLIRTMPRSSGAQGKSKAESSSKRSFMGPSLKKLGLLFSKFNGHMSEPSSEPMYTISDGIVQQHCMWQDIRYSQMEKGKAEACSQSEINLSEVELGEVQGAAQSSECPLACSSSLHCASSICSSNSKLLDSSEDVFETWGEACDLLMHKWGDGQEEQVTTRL
Format: cell-based
Procedure: ICLN-1633 cells (HEK-TREx hTRPC5) expressing TRPC5 were generated as follows. Commercially available HekTrex-293 cells were seeded at 0.7×10^6 cells/well in a 1×6-well plate 24 hrs prior to transfection using 2 mL cell growth media containing no antibiotics (lx DMEM/high glucose (Hyclone #SH30022.02); 10% fetal bovine serum (Sigma) 2 mM sodium pyruvate, 10 mM HEPES). […] On day 2, 2 μg of plasmid DNA plus 6 μl of Xtreme-GENE HP reagent in Optimem (200 μl total volume) was prepared and incubated for 15 min at room temperature. This plasmid solution was then gently overlayed dropwise onto each well and the plate was gently swirled to mix complex with the media for approximately 30 seconds. Transfected cells were incubated at 37° C. in a 10% CO2 incubator for 24 hrs. The transfected cells were harvested and transferred into 2×150 mm dishes containing cell growth media with no antibiotics at 37° C.
The next day selection was initiated to generate a stable pool by adding cell growth media containing 150 μg/mL Hygromycin and 5 μg/mL Blasticidin and cells were allowed to grow. Media with the selection agent was changed every 1-2 days as needed to remove dead cells. After 7 days, the hygromycin concentration was reduced to 75 μg/mL and cells growth was allowed to continue.
Single clones were selected as follows. The stable pool was diluted to 10 cells/mL and seeded (100 μl/well) into 24×96 well plates (˜1 cell/well) and allowed to grow for 7 days in cell growth media. Fresh media (100 μl) was added and the cells allowed to grow for another 1-2 weeks and then stored frozen or used immediately.
10-point dose response curves were generated using the Echo-550 acoustic dispenser. Compound source plates were made by serially diluting compound stocks to create 10 mM, 1 mM, and 0.1 mM solutions in DMSO into Echo certified LDV plates. The Echo then serially spotted 100% DMSO stock solutions into source dose response plates to generate a 4-fold dilution scheme. 100% DMSO was added to the spotted dose response plates to bring the final volume to 5 μl. 300 nl of the dose response stock plate was then spotted into pre-incubation and stimulation assay plates. 50 μl of pre-incubation buffer and 100 μl of stimulation buffer was then added to the plates resulting in a final assay test concentration range of 30 μM to 0.0001 μM with a final DMSO concentration of 0.3%.
Human ICLN-1633 cells expressing were plated onto 384 well, black PDL-coated microplates and maintained in TRPC5 growth media the day prior to use for experiments. TRPC5 expression was induced by the application of 1 μg/mL tetracycline at the time of plating. […] Cells are incubated at room temperature, protected from light, for 60-90 minutes. After the incubation period, the dye is removed and replaced with 10 μl of EBSS. Cell, pre-incubation and stimulation plates are loaded onto the FLIPR-II and the assay is initiated. The FLIPR measures a 10 second baseline and then adds 10 μl of 2× compounds (or controls). Changes in fluorescence are monitored for an additional 5 minutes. After the 5 minute pre-incubation, 20 μl of 2× Riluzole (with 1× compound or controls) is added to the cell plate. The final Riluzole stimulation concentration in the assay is 30 μM. After the Riluzole addition, changes in fluorescence are monitored for an additional 5 minutes.
Compound modulation of TRPC5 calcium response was determined as follows. After the Englerin A, fluorescence was monitored for a 5-minute period. The maximum relative fluorescence response (minus the control response of 1 μM of an internal control compound known to maximally block TRPC5 calcium response, the “REF INHIB” in the formula below) was captured and exported from the FLIPR.
Compound effect is calculated as % inhibition using the following formula: […]
wherein “RFU” is the relative fluorescent units.
`C[C@@H](O)c1nc2c(c(Oc3ccccc3C(F)(F)F)n1)CCN(c1cn[nH]c(=O)c1Cl)C2` (single isomer, unassigned) [Compound 122] showed an IC50 of under 0.05 µM.
With `C[C@H](O)c1nc2c(c(Oc3ccccc3C(F)(F)F)n1)CCN(c1cn[nH]c(=O)c1Cl)C2` (single isomer, unassigned) [Compound 123] the IC50 was 0.05 to 0.5 µM.
For `O=c1[nH]ncc(N2CCc3c(ncnc3Oc3ccccc3Cl)C2)c1Cl` [Compound 101], the IC50 was under 0.05 µM.
`Nc1nc2c(c(Oc3ccccc3C(F)(F)F)n1)CCN(c1cn[nH]c(=O)c1Cl)C2` [Compound 102] showed an IC50 of under 0.05 µM.
`O=c1[nH]ncc(N2CCc3c(ncnc3Oc3ccccc3C(F)F)C2)c1Cl` [Compound 103, 4-Chloro-5-[4-[2-(difluoromethyl)phenoxy]-5H,6H,7H,8H-pyrido[3,4-d]pyrimidin-7-yl]-2,3-dihydropyridazin-3-one] showed an IC50 of under 0.05 µM.
Work on `O=c1[nH]ncc(N2CCc3c(ncnc3Oc3ccc(F)cc3C(F)F)C2)c1Cl` [Compound 105] yielded an IC50 of under 0.05 µM.
In the case of `O=c1[nH]ncc(N2CCc3c(ncnc3Oc3cc(F)ccc3C(F)(F)F)C2)c1Cl` [Compound 106], the IC50 is reported as under 0.05 µM.
`O=c1[nH]ncc(N2CCc3c(ncnc3Oc3cnccc3C(F)(F)F)C2)c1Cl` [Compound 107] showed an IC50 of under 0.05 µM.
`N#Cc1cccc(Oc2ncnc3c2CCN(c2cn[nH]c(=O)c2Cl)C3)c1Cl` [Compound 108, 2-Chloro-3-[[7-(5-chloro-6-oxo-1,6-dihydropyridazin-4-yl)-5H,6H,7H,8H-pyrido[3,4-d]pyrimidin-4-yl]oxy]benzonitrile] was tested, and the IC50 was 0.05 to 0.5 µM.
Compound `CCc1c(F)cccc1Oc1ncnc2c1CCN(c1cn[nH]c(=O)c1Cl)C2` [Compound 109, 4-Chloro-5-[4-(2-ethyl-3-fluorophenoxy)-5H,6H,7H,8H-pyrido[3,4-d]pyrimidin-7-yl]-2,3-dihydropyridazin-3-one] has an IC50 of under 0.05 µM.
For `COc1nc2c(c(Oc3ccccc3C(F)(F)F)n1)CCN(c1cn[nH]c(=O)c1Cl)C2` [Compound 110, 4-Chloro-5-[2-methoxy-4-[2-(trifluoromethyl)phenoxy]-5H,6H,7H,8H-pyrido[3,4-d]pyrimidin-7-yl]-2,3-dihydropyridazin-3-one], the IC50 was 0.05 to 0.5 µM.
With `N#Cc1cccc(Oc2ncnc3c2CCN(c2cn[nH]c(=O)c2Cl)C3)c1C(F)(F)F` [Compound 111, 3-[[7-(5-Chloro-6-oxo-1,6-dihydropyridazin-4-yl)-5H,6H,7H,8H-pyrido[3,4-d]pyrimidin-4-yl]oxy]-2-(trifluoromethyl)benzonitrile] the IC50 was 0.05 to 0.5 µM.
For `Nc1nc2c(c(Oc3ccc(F)cc3Cl)n1)CCN(c1cn[nH]c(=O)c1Cl)C2` [Compound 112, 5-[2-amino-4-(2-chloro-4-fluorophenoxy)-5H,6H,7H,8H-pyrido[3,4-d]pyrimidin-7-yl]-4-chloro-2,3-dihydropyridazin-3-one], the IC50 was under 0.05 µM.
Work on `Nc1nc2c(c(Oc3ccccc3Cl)n1)CCN(c1cn[nH]c(=O)c1Cl)C2` [Compound 113] yielded an IC50 of under 0.05 µM.
`O=c1[nH]ncc(N2CCc3c(nc(CO)nc3Oc3ccc(F)cc3Cl)C2)c1Cl` [Compound 114] showed an IC50 of under 0.05 µM.
Work on `O=c1[nH]ncc(N2CCc3c(nc(NCCO)nc3Oc3ccccc3C(F)(F)F)C2)c1Cl` [Compound 115, 4-chloro-5-[2-[(2-hydroxyethyl)amino]-4-[2-(trifluoromethyl)phenoxy]-5H,6H,7H,8H-pyrido[3,4-d]pyrimidin-7-yl]-2,3-dihydropyridazin-3-one] yielded an IC50 of 0.05 to 0.5 µM.
Compound `Nc1nc2c(c(Oc3ccc(F)cc3C(F)(F)F)n1)CCN(c1cn[nH]c(=O)c1Cl)C2` [Compound 116] has an IC50 of under 0.05 µM.
With `C[C@@H]1c2ncnc(Oc3ccc(F)cc3Cl)c2CCN1c1cn[nH]c(=O)c1Cl` [Compound 118, 4-chloro-5-[(8R)-4-(2-chloro-4-fluorophenoxy)-8-methyl-5H,6H,7H,8H-pyrido[3,4-d]pyrimidin-7-yl]-2,3-dihydropyridazin-3-one] the IC50 was 0.05 to 0.5 µM.
Work on `C[C@@H](O)c1nc2c(c(Oc3ccc(F)cc3Cl)n1)CCN(c1cn[nH]c(=O)c1Cl)C2` [Compound 119] yielded an IC50 of under 0.05 µM.
`O=c1[nH]ncc(N2CCc3c(ccnc3Oc3ccc(F)cc3C(F)(F)F)C2)c1Cl` [Compound 120, 4-chloro-5-[5-[4-fluoro-2-(trifluoromethyl)phenoxy]-1,2,3,4-tetrahydro-2,6-naphthyridin-2-yl]-2,3-dihydropyridazin-3-one] gave an IC50 of under 0.05 µM.
`O=c1[nH]ncc(N2CCc3c(ncnc3Oc3c(F)cccc3C(F)(F)F)C2)c1Cl` [Compound 121] gave an IC50 of under 0.05 µM.
Work on `Cc1cc(F)ccc1Oc1ncnc2c1CCN(c1cn[nH]c(=O)c1Cl)C2` [Compound 124] yielded an IC50 of under 0.05 µM.
`O=c1[nH]ncc(N2CCc3c(nc(CO)nc3Oc3ccc(F)cc3C(F)(F)F)C2)c1Cl` [Compound 125] showed an IC50 of under 0.05 µM.
With `CN(c1ccc(F)cc1C(F)(F)F)c1cc(=O)n(C)c2c1CCN(c1cn[nH]c(=O)c1Cl)C2` [Compound 127, 7-(5-Chloro-6-oxo-1,6-dihydropyridazin-4-yl)-4-[[4-fluoro-2-(trifluoromethyl)phenyl](methyl)amino]-1-methyl-1,2,5,6,7,8-hexahydro-1,7-naphthyridin-2-one] the IC50 was 0.05 to 0.5 µM.
`O=c1[nH]ncc(N2CCc3c(nc(CO)nc3Oc3ccccc3C(F)(F)F)C2)c1Cl` [Compound 128] was tested, and the IC50 was under 0.05 µM.
`CN(c1cnccc1C(F)(F)F)c1ncnc2c1CCN(c1cn[nH]c(=O)c1Cl)C2` [Compound 131, 4-chloro-5-(4-[methyl[4-(trifluoromethyl)pyridin-3-yl]amino]-5H,6H,7H,8H-pyrido[3,4-d]pyrimidin-7-yl)-2,3-dihydropyridazin-3-one] showed an IC50 of under 0.05 µM.
Work on `O=c1[nH]ncc(N2CCc3c(ncnc3C3(c4ccc(F)cc4C(F)(F)F)CC3)C2)c1Cl` [Compound 132, 4-Chloro-5-(4-[1-[4-fluoro-2-(trifluoromethyl)phenyl]cyclopropyl]-5H,6H,7H,8H-pyrido[3,4-d]pyrimidin-7-yl)-2,3-dihydropyridazin-3-one] yielded an IC50 of 0.05 to 0.5 µM.
Work on `C[C@@H]1CCN(Cc2ccccc2)C[C@@H]1N(C)c1ncnc2c1CCN(c1cn[nH]c(=O)c1Cl)C2` [Compound 133, 5-(4-[[(3R,4R)-1-Benzyl-4-methylpiperidin-3-yl](methyl)amino]-5H,6H,7H,8H-pyrido[3,4-d]pyrimidin-7-yl)-4-chloro-2,3-dihydropyridazin-3-one] yielded an IC50 of 0.05 to 0.5 µM.
`C[C@H]1CCN(Cc2ccccc2)C[C@H]1N(C)c1ncnc2c1CCN(c1cn[nH]c(=O)c1Cl)C2` [Compound 133a] was tested, and the IC50 was 0.5 to 1 µM.

From patent US20220152031A1, “PYRIDAZINONES AND METHODS OF USE THEREOF” (Goldfinch Bio, Inc., priority 2019, published 2022)
